Test results reported in patent publication EP1066315B1 (University of Dundee, priority 1998, dated 2008).
Residues, ends and D or L forms follow the SMILES beside them. *: point of attachment. Fmoc = O=C(OCC1c2ccccc2-c2ccccc21)*

Test system: peripheral blood mononuclear cells (PBMC) / autologous TTCF specific T cell clones
Experiment: TTCF antigen presentation by PBMC, read out as proliferation of autologous T cell clones
Type: cell-based, human
Protocol: The invention will now be described by reference to the following Examples and Figures wherein • Figure 1: Processing of TTCF by a leupeptin-insensitive cysteine endopeptidase activity. (a) TTCF was digested in vitro in the presence of disrupted lysosomes (1-2 µg) in the presence or absence of iodoacetamide (1 mM), leupeptin, E64 or pepstatin (each at 0.1 mg/ml). Digestions were in 0.1 M NH4 acetate at pH 4.5 or Na2HPO4, pH 6.0 or 7.0. After 4 hours at 37°C, the reactions were separated by Tris-tricine SDS-PAGE and stained with Coomassie Blue. (b) Cleavage sites: TTCF digestion products were separated by SDS PAGE and electrophoretically transferred to nitrocellulose membrane. Individual fragments numbered 1-6 were subjected to 5 cycles of Edman degradation. N-terminal sequence obtained is shown in bold following upstream residues from TTCF (tetanus toxin numbering). The N-terminal sequence of His-tagged TTCF was obtained for fragments 1 and 3. (c) Residues Asn 1184 and Glu 1184 in TTCF were mutated to alanine (see Methods) and digestions performed as before. The mutation abolishes cleavage at the mutated site but not at the first site (doublet at 47 kD). In this experiment cleavage of the third site was minimal. • Figure 2: TTCF is processed by an asparaginyl endopeptidase. (a) Chromatography of the TTCF processing activity on Mono-S resin. Fractions eluted by NaCl gradient were incubated with the substrates Z-Ala-Ala-Asn-NHMec or Z-Phe-Arg-NHMec in the presence or absence of E64 (trans-epoxysuccinyl-L-leucylamido-(4-guanidino)butane). […] (b) Fractions as above were incubated with 10 µg TTCF in the presence or absence of E64 for 4 hours at 37°C prior to SDS-PAGE analysis. (c) Each fraction was analysed by SDS-PAGE and Western blotting. Electrophoretically transferred material was probed with an affinity purified antiserum raised against the peptide KGIGSGKVLKSGPQC from human legumain^1. • Figure 3: Peptide inhibitors of AEP block asparaginyl endopeptidase activity and TTCF processing in vitro and in vivo. (a) TTCF was digested with purified AEP (legumain from pig kidney) in the presence or absence of 0.2 mg/ml of the peptides indicated. […] (b) Purified AEP or a crude lysosomal protease mixture were incubated with Z-Ala-Ala-Asn-NHMec, Z-Phe-Arg-NHMec (cathepsins L&B) or Z-Val-Val-Ala NHMec (cathepsin S) in the presence of increasing concentrations of AENK or AEQK. Release of 7-amino-4-methyl coumarin was measured after 10, 20 or 30 minutes. […] At different times the cells were washed, fixed in 0.05 % glutaraldehyde and co-cultured with autologous TTCF specific T cell clones. […] Proteins obtained from commercial sources, as described in the literature or custom peptides were digested with purified pig kidney legumain at pH 5.5 in the presence of 1 mM DTT. […] When present peptide was maintained during antigen pulsing at 1 mg/ml (a) or 2 mg/ml (b). At different times the cells were washed, fixed in 0.05 % glutaraldehyde and antigen presentation measured using proliferation of different autologous TTCF-specific T cell clones. c, AEP pre-processing of TTCF speeds antigen presentation. […] Presentation was measured after 60 minutes of antigen pulsing using EBV B cells.
If AEP plays a role in TTCF processing in antigen presenting cells then sufficiently high levels of the competing AENK peptide might be expected to interfere with normal class II MHC loading of TTCF epitopes. Following a 15 minute preincubation with or without tetrapeptides, freshly isolated peripheral blood mononuclear cells (PBMC) were incubated with TTCF antigen in the continued presence or absence of the peptides. At different times, the cells were washed, fixed and then co-cultured with different autologous T cell clones to assess expression of different peptide/MHC complexes. […] At later times there was some recovery of presentation of these epitopes as expected for a competitive inhibitor. […]

[1] = PBMC, 1 mg/ml peptide, 30 µg/ml TTCF, after 60 minutes of antigen pulsing

In the case of `C[C@H](NC(=O)OCC1c2ccccc2-c2ccccc21)C(=O)N[C@@H](CCC(=O)O)C(=O)N[C@@H](CC(N)=O)C(=O)N[C@@H](CCCCN)C(N)=O` [AENK, Ala-Glu-Asn-Lys-NH] (Fmoc-AENK-NH2), the “presentation to T cell clone AK 6” value [1] is reported as “profoundly inhibited”, the “presentation to T cell clones AK 20 and AK 90” value [1] is reported as “undetectable” and the “presentation to other clones recognising other regions of TTCF (eg AK 111, 71 and 33)” value (PBMC, 1 mg/ml peptide, 30 µg/ml TTCF, Fig 3c) is reported as “not affected”. The “presentation to most clones (eg AK 5, 90 & 6) at early times” value (PBMC, 1 mg/ml peptide, between 30 and 60 minutes of antigen pulsing, Fig 9a) was “undetactable” and the “inhibitory effect on presentation when TTCF pre-digested in vitro by AEP is used” value (TTCF pre-digested in vitro by AEP, data not shown) was “could be overridden”.
